Measurements reported in ChEMBL document CHEMBL3421609, “Sandensone A, a novel sesquiterpenoid from the Formosan soft coral Sinularia sandensis” (2015).
pEC50: −log10 of the molar value. The source made the active and inactive calls. The rule behind the calls is not given here.

How the values were obtained:
HT-29 = assay: Cytotoxicity against human HT-29 cells by MTT assay; type: functional; details: read-out: ED50 (the source's name)
P388 = assay: Cytotoxicity against mouse P388 cells by MTT assay; type: functional; details: read-out: ED50 (the source's name)
A549 = assay: Cytotoxicity against human A549 cells by MTT assay; type: functional; details: read-out: ED50 (the source's name)
Human betaherpesvirus 5 [1] = assay: Antiviral activity against human cytomegalovirus infected in HEL cells assessed as reduction in virus replication; type: functional; details: Human betaherpesvirus 5, HEL; read-out: ED50 (the source's name)
Human betaherpesvirus 5 [2] = assay: Antiviral activity against human cytomegalovirus infected in HEL cells assessed as reduction in virus replication at 1 ug/ml; type: functional, organism-based

In the case of `CO[C@H](C(=O)[C@@H](O)[C@@H](C)O)[C@@H]1Cc2cc3cc(O[C@H]4C[C@@H](O[C@@H]5C[C@@H](O)[C@H](O)[C@@H](C)O5)[C@H](O)[C@@H](C)O4)c(C)c(O)c3c(O)c2C(=O)[C@H]1O[C@H]1C[C@@H](O[C@@H]2C[C@@H](O)[C@@H](O[C@@H]3C[C@](C)(O)[C@H](O)[C@@H](C)O3)[C@@H](C)O2)[C@H](O)[C@@H](C)O1` [PLICAMYCIN], the pEC50 (HT-29) was 7.15, the pEC50 (P388) was 7.30 and the pEC50 (A549) was 7.22.
`C=C/C(C)=C/C/C=C(\C)[C@H]1C(=O)C=C(C)[C@@H]1O` was tested, and the EC50 (Human betaherpesvirus 5 [1]) was greater than 50 µg/mL, the Activity (Human betaherpesvirus 5 [2]) was “inactive” and the pEC50 (HT-29) was 4.42. It also gave a pEC50 (P388) of 4.66 and a pEC50 (A549) of less than 4.30.
